Data as given in patent publication US8946266B2, “Substituted triazole and imidazole derivatives as gamma secretase modulators” (Janssen Pharmaceuticals, Inc., priority 2009, dated 2015).

What was measured:
Aβ42 = assay: γ-secretase-modulating activity, Method 2: Aβ42 Alphalisa in supernatant of SKNBE2 cells carrying APP 695-wild type (Table 3b); assay type: cell-based; details: overnight
Procedure, shortened: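 SKNBE2 cells expressing wild-type APP695 were incubated overnight at 37° C. with test compound. Secreted Aβ42 was then measured by AlphaLISA, using a C-terminal Aβ42 antibody paired with an N-terminal Aβ antibody. IC50 came from a 4-parameter fit of percent of compound-free control.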

Aβtotal = assay: γ-secretase-modulating activity, Method 2: Aβtotal Alphalisa in supernatant of SKNBE2 cells carrying APP 695-wild type (Table 3b); assay type: cell-based; details: overnight, read-out: IC50 Aβtot
Procedure, shortened: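 SKNBE2 cells expressing wild-type APP 695 were incubated overnight at 37 °C, 5% CO2 with test compound at a range of concentrations. Aβtotal in supernatant was measured by AlphaLISA sandwich (N-terminal JRF/AβN/25 acceptor, biotinylated mid-region 4G8 donor); IC50 from 4-parameter fit of percent control versus log concentration.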

Compound	IC50 (Aβ42)	IC50 (Aβtotal)
COc1cc(-c2nc(Nc3ccccc3Br)n(C)n2)ccc1-n1cnc(C)c1 [Compound 102]	56 nM	> 10000 nM
COc1cc(-c2nc3n(n2)CCCC3c2ccccc2F)ccc1-n1cnc(C)c1 (stereo not drawn) [Compound 257]	148 nM	> 10000 nM
COc1cc(-c2nc(Nc3cccc(NC(C)=O)c3)n(C)n2)ccc1-n1cnc(C)c1 [Compound 222]	1150 nM	> 10000 nM
COc1cc(-c2nc(Oc3ccccc3Cl)n(C)n2)ccc1-n1cnc(C)c1 [Compound 248]	389 nM	> 10000 nM
COc1cc(-c2nc(Nc3ccc(C(F)(F)F)cc3)n(C)n2)ccc1-n1cnc(C)c1 [Compound 151]	27 nM	4070 nM
COc1cc(-c2nc(Nc3ccccc3)n(C)n2)ccc1-n1cnc(C)c1 [Compound 335]	200 nM	> 10000 nM
COc1cc(-c2nc(Nc3ccc(C#N)cc3F)n(C)n2)ccc1-n1cnc(C)c1 [Compound 227]	676 nM	891 nM
COc1cccc(-c2nc(-c3ccc(-n4cnc(C)c4)c(OC)c3)nn2C(C)C)c1 [Compound 37]	85 nM	11200 nM
COc1cc(-c2nc(Nc3cccc(C(F)(F)F)c3)n(C(C)C)n2)ccc1-n1cnc(C)c1 [Compound 133]	31 nM	2340 nM
COc1cc(-c2nc3n(n2)CCOC3c2ccc(F)cc2F)ccc1-n1cnc(C)c1 (stereo not drawn) [Compound 282]	380 nM	> 10000 nM
COc1cc(-c2nc(Nc3ccc(Cl)cc3C(F)(F)F)n(C)n2)ccc1-n1cnc(C)c1 [Compound 156]	33 nM	> 10000 nM
COc1cc(-c2nc(Nc3cc(C(F)(F)F)ccc3F)n(CCC#N)n2)ccc1-n1cnc(C)c1 [Compound 137]	41 nM	> 10000 nM
COc1cc(-c2nc(Nc3cccnc3C(F)(F)F)n(C)n2)ccc1-n1cnc(C)c1 [Compound 233]	603 nM	> 10000 nM
COc1ccc(F)cc1Nc1nc(-c2ccc(-n3cnc(C)c3)c(OC)c2)nn1C [Compound 190]	214 nM	> 10000 nM
COc1cc(-c2nc(Nc3cccn(C)c3=O)n(C)n2)ccc1-n1cnc(C)c1 [Compound 243]	8320 nM	> 10000 nM
COc1cc(-c2nc3n(n2)CCCC3c2ccccc2OC(F)(F)F)ccc1-n1cnc(C)c1 (stereo not drawn) [Compound 266]	74 nM	> 3000 nM
Cc1cn(-c2ccc(-c3nc(Nc4ccc(F)cc4C(F)(F)F)n(C)n3)cc2)cn1 [Compound 149]	1700 nM	> 10000 nM
COc1cc(-c2n[nH]c(C3CCCCC3)n2)ccc1-n1cnc(C)c1 [Compound 33]	269 nM	> 10000 nM
COc1cc(-c2nc(Nc3c(F)ccc(Br)c3F)n(C)n2)ccc1-n1cnc(C)c1 [Compound 127]	66 nM	> 10000 nM
COc1cc(-c2nc3n(n2)CCCC3c2ccccc2Cl)ccc1-n1cnc(C)c1 (stereo not drawn) [Compound 256]	21 nM	> 10000 nM
COc1cc(-c2nc(Nc3cc(Cl)cc(Cl)c3)n(C)n2)ccc1-n1cnc(C)c1 [Compound 115]	102 nM	> 10000 nM
COc1cc(-c2nc3n(n2)CCCOC3c2ccc(F)cc2)ccc1-n1cnc(C)c1 (stereo not drawn) [Compound 284]	229 nM	> 10000 nM
COc1nc(-c2nc3n(n2)CCC[C@@H]3c2ccccc2C(F)(F)F)ccc1-n1cnc(C)c1 [Compound 262]	324 nM	> 10000 nM
COc1cc(-c2nc(Nc3cccc(C(F)(F)F)c3)n(CC(F)(F)F)n2)ccc1-n1cnc(C)c1 [Compound 145]	38 nM	2240 nM
COc1cc(-c2nc(-c3ccccc3C(F)(F)F)nn2C)ccc1-n1cnc(C)c1 [Compound 54]	4170 nM	> 10000 nM
COc1cc(-c2nc(Nc3ncccc3C(F)(F)F)n(C)n2)ccc1-n1cnc(C)c1 [Compound 240]	794 nM	> 10000 nM
COc1cc(-c2nc3n(n2)CCOC3c2ccc(F)cc2C)ccc1-n1cnc(C)c1 (stereo not drawn) [Compound 166]	65 nM	> 10000 nM
